Assay results from ChEMBL document CHEMBL1131352, “Identification of a series of 1,2,3,4-tetrahydroisoquinolinyl-benzamides with potential anticonvulsant activity” (Bioorg Med Chem Lett, 1998).

Columns and labels:
Mus musculus [1] = species on record: Mus musculus; assay: Anticonvulsant activity was determined in mouse maximal electroshock seizure threshold (MEST) model at 1 hour post dose.; type: functional
SB-204269 binding site [2] = assay: Inhibition of [3H]SB-204269 binding in rat forebrain; type: tissue-based
Mus musculus [3] = species on record: Mus musculus; assay: Anticonvulsant activity was determined in mouse maximal electroshock seizure threshold (MEST) model at 1 hour post dose; type: functional
Rattus norvegicus [4] = species on record: Rattus norvegicus; assay: Anticonvulsant activity was determined in rat maximal electroshock seizure threshold (MEST) model at 4 hour post dose; type: functional
SB-204269 binding site [5] = assay: Binding affinity for [3H]SB-204269 in rat forebrain; type: tissue-based
Rattus norvegicus [6] = species on record: Rattus norvegicus; assay: Anticonvulsant activity was determined in rat maximal electroshock seizure threshold (MEST) model at 4 hour post dose.; type: functional

SMILES | Increase (Mus musculus [1]) [%] | Log Ki (SB-204269 binding site [2]) | further results
COc1cc(N)c(Cl)cc1C(=O)Nc1cccc2c1CCN(C)C2 | 25 | -7.8 | 
CC(=O)c1ccc2c(c1)[C@H](NC(=O)c1ccc(F)cc1)[C@@H](O)C(C)(C)O2 [CARABERSAT] |  |  | Increase (Mus musculus [3]): 100%; Increase (Rattus norvegicus [4]): 570%; Log Ki (SB-204269 binding site [5]): -7.3
COc1cc(Cl)ccc1C(=O)Nc1cccc2c1CCN(C)C2 |  | -6.1 | 
COc1cc(C)c(Cl)cc1C(=O)Nc1cccc2c1CCN(C)C2 | 50 | -7.6 | 
CCc1cc(OC)c(C(=O)Nc2cccc3c2CCN(C)C3)cc1Cl | 100 | -7.9 | 
COc1ccc(Cl)cc1C(=O)Nc1ccc2c(c1)CN(C)CC2 | 4 | -7.2 | 
COc1cc([N+](=O)[O-])c(Cl)cc1C(=O)Nc1cccc2c1CCN(C)C2 |  | -6.8 | 
COc1c(Cl)cc(Cl)cc1C(=O)Nc1cccc2c1CCN(C)C2 |  | -5.4 | 
COc1ccccc1C(=O)Nc1cccc2c1CCN(C)C2 |  | -5.8 | 
COc1cc(N)c(Cl)cc1C(=O)Nc1cccc2c1CN(C)CC2 |  | -6.1 | 
COc1ccc(Cl)cc1C(=O)Nc1cccc2c1CCN(C)C2 | 20 | -7 | 
COc1cc(C(C)(C)C)c(Cl)cc1C(=O)Nc1cccc2c1CCN(C)C2 |  | -6.9 | 
CCc1ccc(C(=O)Nc2cccc3c2CCN(C)C3)c(OC)c1 | 60 | -7.3 | 
COc1cc(C(C)(C)C)ccc1C(=O)Nc1cccc2c1CCN(C)C2 | 140 | -7.7 | Increase (Rattus norvegicus [6]): 330%
CN1CCc2c(cccc2NC(=O)c2cccc(Cl)c2)C1 |  | < -5 | 
COc1cc(C(C)(C)C)ccc1C(=O)Nc1ccc2c(c1)CN(C)CC2 | 130 | -7.6 | Increase (Rattus norvegicus [6]): 110%
CN1CCc2c(cccc2NC(=O)c2ccc(C(C)(C)C)cc2)C1 |  | -6 | 
COc1cc(C(C)(C)C)ccc1C(=O)Nc1ccc2c(c1)CCN(C)C2 | 4 | -6.4 | 
